Laboratory results from patent publication US9365522B2, “Pyrazole amide derivative” (AMGEN INC., priority 2015, dated 2016).

biological target: T1, human RORγ-LBD (Homo sapiens, UniProt P51449); assay: ROR gamma coactivator peptide recruitment Alphascreen assay (RORγ-LBD binding to GRIP1 coactivator peptide); assay type: biochemical; conditions: 5 nM human RORγ-LBD, 30 nM 7-β-hydroxycholesterol, 50 nM biotinylated GRIP1 coactivator peptide, overnight incubation at room temperature; read-out: result (pIC50, RORγ coactivator peptide recruitment Alphascreen assay) (converted)
T1 construct: made in house; host or cells: E. coli (BL-21)
T1 sequence (P51449 262-518): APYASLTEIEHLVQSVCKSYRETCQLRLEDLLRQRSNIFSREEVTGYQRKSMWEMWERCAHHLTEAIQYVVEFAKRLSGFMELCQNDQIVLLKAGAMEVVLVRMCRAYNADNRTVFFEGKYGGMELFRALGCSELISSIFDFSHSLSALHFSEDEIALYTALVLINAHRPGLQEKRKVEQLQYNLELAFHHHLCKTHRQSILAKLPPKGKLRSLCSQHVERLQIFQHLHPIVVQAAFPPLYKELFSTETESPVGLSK
In short: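 His/Flag-tagged human RORγ-LBD (aa 262-518, E. coli-expressed, 5 nM) with agonist 7-β-hydroxycholesterol (30 nM) and biotinylated GRIP1 LXXLL peptide (50 nM) in HEPES pH 7.4 buffer, 2.5% DMSO. Compound 1-in-2 dilutions; Alphascreen bead signal read after overnight incubation at room temperature; pIC50 calculated.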

Compound | IC50 [nM]
O=C(c1cnn([C@H]2CC[C@H](C(=O)O)CC2)c1C(F)(F)F)N(CCc1cccc2cc[nH]c12)Cc1ccc(Cl)cc1 [Example 508, trans-4-(4-((4-chlorobenzyl)(2-(1H-indol-7-yl)ethyl)carbamoyl)-5-(trifluoromethyl)-1H-pyrazol-1-yl)cyclohexanecarboxylic acid] | 759
Cc1ccc(CCN(Cc2ccc(Cl)cc2)C(=O)c2cnn([C@H]3CC[C@H](C(=O)O)CC3)c2C(F)(F)F)c(C)c1 [Example 505, trans-4-(4-((4-chlorobenzyl)(2-(2,4-dimethylphenyl)ethyl)carbamoyl)-5-(trifluoromethyl)-1H-pyrazol-1-yl)cyclohexanecarboxylic acid] | 5.89
CC1(CN(CCc2c(Cl)cncc2Cl)C(=O)c2cnn([C@H]3CC[C@](C)(C(=O)O)CC3)c2C(F)(F)F)CC1 [Example 564, trans-4-(4-((2-(3,5-dichloro-4-pyridinyl)ethyl)((1-methylcyclopropyl)methyl)carbamoyl)-5-(trifluoromethyl)-1H-pyrazol-1-yl)-1-methylcyclohexanecarboxylic acid] | 4.17
COC1(CN(CC(=O)c2c(Cl)cncc2Cl)C(=O)c2cnn([C@H]3CC[C@@H](C(=O)O)CC3)c2C(F)(F)F)CCCC1 [Example 646, cis-4-(4-((2-(3,5-dichloro-4-pyridinyl)-2-oxoethyl)((1-methoxycyclopentyl)methyl)carbamoyl)-5-(trifluoromethyl)-1H-pyrazol-1-yl)cyclohexanecarboxylic acid] | 295
CC(C)(C)CN(CCc1c(Cl)cccc1Cl)C(=O)c1cnn([C@H]2CC[C@H](C(=O)O)CC2)c1C(F)(F)F [Example 523, trans-4-(4-((2-(2,6-dichlorophenyl)ethyl)(2,2-dimethylpropyl)carbamoyl)-5-(trifluoromethyl)-1H-pyrazol-1-yl)cyclohexanecarboxylic acid] | 8.71
C[C@@]1(CN(CCc2c(Cl)cncc2Cl)C(=O)c2cnn([C@H]3CC[C@H](C(=O)O)CC3)c2C(F)(F)F)CCCO1 [Example 552, trans-4-(4-((2-(3,5-dichloro-4-pyridinyl)ethyl)(((2S)-2-methyltetrahydro-2-furanyl)methyl)carbamoyl)-5-(trifluoromethyl)-1H-pyrazol-1-yl)cyclohexanecarboxylic acid] | 331
C[C@@H]1C[C@@H](n2ncc(C(=O)N(CC(=O)c3c(Cl)cccc3Cl)CC3CC(C)(C)C3)c2C(F)(F)F)CC[C@@H]1C(=O)O [Example 663, (1S,2R,4S)-4-(4-((2-(2,6-dichlorophenyl)-2-oxoethyl)((3,3-dimethylcyclobutyl)methyl)carbamoyl)-5-(trifluoromethyl)-1H-pyrazol-1-yl)-2-methylcyclohexanecarboxylic acid] | 1.95
Cc1cc(Cl)c(C(=O)CN(CC2(F)CC2)C(=O)c2cnn([C@H]3CC[C@](C)(C(=O)O)CC3)c2C(F)(F)F)c(Cl)c1 [Example 630, trans-4-(4-((2-(2,6-dichloro-4-methylphenyl)-2-oxoethyl)((1-fluorocyclopropyl)methyl)carbamoyl)-5-(trifluoromethyl)-1H-pyrazol-1-yl)-1-methylcyclohexanecarboxylic acid] | 3.98
COc1cccc(F)c1C(=O)CN(CC1CC(C)(C)C1)C(=O)c1cnn([C@H]2CC[C@](C)(C(=O)O)CC2)c1C(F)(F)F [Example 602, trans-4-(4-(((3,3-dimethylcyclobutyl)methyl)(2-(2-fluoro-6-methoxyphenyl)-2-oxoethyl)carbamoyl)-5-(trifluoromethyl)-1H-pyrazol-1-yl)-1-methylcyclohexanecarboxylic acid] | 174

Next, values leading:

IC50 [nM] | Compound
3.02 | CC1(CN(CC(=O)c2c(Cl)cncc2Cl)C(=O)c2cnn([C@H]3CC[C@H](CC(=O)O)CC3)c2C(F)(F)F)CCC1 [Example 775, (trans-4-(4-((2-(3,5-dichloro-4-pyridinyl)-2-oxoethyl)((1-methylcyclobutyl)methyl)carbamoyl)-5-(trifluoromethyl)-1H-pyrazol-1-yl)cyclohexyl)acetic acid]
2.75 | Cc1cc(Cl)c(C(=O)CN(C[C@@]2(C)CCCO2)C(=O)c2cnn([C@H]3CC[C@](C)(C(=O)O)CC3)c2C(F)(F)F)c(Cl)c1 [Example 726, trans-4-(4-((2-(2,6-dichloro-4-methylphenyl)-2-oxoethyl)(((2R)-2-methyltetrahydro-2-furanyl)methyl)carbamoyl)-5-(trifluoromethyl)-1H-pyrazol-1-yl)-1-methylcyclohexanecarboxylic acid]
1.82 | CC(C)(CN(CC(=O)c1c(Cl)cncc1Cl)C(=O)c1cnn([C@H]2CC[C@H](CC(=O)O)CC2)c1C(F)(F)F)C(F)(F)F [Example 884, (trans-4-(4-((2-(3,5-dichloro-4-pyridinyl)-2-oxoethyl)(3,3,3-trifluoro-2,2-dimethylpropyl)carbamoyl)-5-(trifluoromethyl)-1H-pyrazol-1-yl)cyclohexyl)acetic acid]
4.57 | CC(C)(C)CN(CC(=O)c1c(Cl)cncc1Cl)C(=O)c1cnn([C@H]2CC[C@](C)(C(=O)O)C[C@H]2F)c1C(F)(F)F [Example 868, (1S,3R,4S)-4-(4-((2-(3,5-dichloro-4-pyridinyl)-2-oxoethyl)(2,2-dimethylpropyl)carbamoyl)-5-(trifluoromethyl)-1H-pyrazol-1-yl)-3-fluoro-1-methylcyclohexanecarboxylic acid]
4.79 | C[C@]1(CN(CC(=O)c2c(Cl)cccc2Cl)C(=O)c2cnn([C@H]3CC[C@](C)(C(=O)O)CC3)c2C(F)(F)F)CCCO1 [Example 728, trans-4-(4-((2-(2,6-dichlorophenyl)-2-oxoethyl)(((2R)-2-methyltetrahydro-2-furanyl)methyl)carbamoyl)-5-(trifluoromethyl)-1H-pyrazol-1-yl)-1-methylcyclohexanecarboxylic acid]
47.9 | CC1(C)CC[C@@H](CN(CCc2c(Cl)cncc2Cl)C(=O)c2cnn([C@H]3CC[C@](C)(C(=O)O)CC3)c2C(F)(F)F)O1 [Example 680, trans-4-(4-((2-(3,5-dichloro-4-pyridinyl)ethyl)(((2S)-5,5-dimethyltetrahydro-2-furanyl)methyl)carbamoyl)-5-(trifluoromethyl)-1H-pyrazol-1-yl)-1-methylcyclohexanecarboxylic acid]
10 | Cc1cc(Cl)c(C(=O)CN(CC2CCCCC2)C(=O)c2cnn([C@H]3CC[C@@H](C(=O)O)CC3)c2C(F)(F)F)c(Cl)n1 [Example 834, cis-4-(4-((cyclohexylmethyl)(2-(2,4-dichloro-6-methyl-3-pyridinyl)-2-oxoethyl)carbamoyl)-5-(trifluoromethyl)-1H-pyrazol-1-yl)cyclohexanecarboxylic acid]
1.66 | CC1(CN(CC(=O)c2c(Cl)cc(F)cc2Cl)C(=O)c2cnn([C@H]3CC[C@](C)(C(=O)O)CC3)c2C(F)(F)F)CCC1 [Example 691, trans-4-(4-((2-(2,6-dichloro-4-fluorophenyl)-2-oxoethyl)((1-methylcyclobutyl)methyl)carbamoyl)-5-(trifluoromethyl)-1H-pyrazol-1-yl)-1-methylcyclohexanecarboxylic acid]
1 | Cc1cc(Cl)c(C(=O)CN(C[C@@H]2CC2(C)C)C(=O)c2cnn([C@H]3CC[C@](C)(C(=O)O)CC3)c2C(F)(F)F)c(Cl)c1 [Example 745, trans-4-(4-((2-(2,6-dichloro-4-methylphenyl)-2-oxoethyl)(((1R)-2,2-dimethylcyclopropyl)methyl)carbamoyl)-5-(trifluoromethyl)-1H-pyrazol-1-yl)-1-methylcyclohexanecarboxylic acid]
64.6 | C[C@@H]1C[C@@H](n2ncc(C(=O)N(CC(=O)c3c(Cl)cncc3Cl)[C@@H]3CCC34CCC4)c2C(F)(F)F)CC[C@@H]1C(=O)O [Example 817, (1S,2R,4S)-4-(4-((2-(3,5-dichloro-4-pyridinyl)-2-oxoethyl)((1R)-spiro[3.3]hept-1-yl)carbamoyl)-5-(trifluoromethyl)-1H-pyrazol-1-yl)-2-methylcyclohexanecarboxylic acid]
3.98 | Cc1ncc(Cl)c(C(=O)CN(Cc2cc(F)cc(F)c2)C(=O)c2cnn([C@H]3CC[C@](C)(C(=O)O)CC3)c2C(F)(F)F)c1Cl [Example 768, trans-4-(4-((2-(3,5-dichloro-2-methyl-4-pyridinyl)-2-oxoethyl)(3,5-difluorobenzyl)carbamoyl)-5-(trifluoromethyl)-1H-pyrazol-1-yl)-1-methylcyclohexanecarboxylic acid]
6.31 | CC(C)(C)CN(CC(=O)c1c(Cl)cncc1Cl)C(=O)c1cnn([C@H]2C[C@]3(C[C@H](C(=O)O)C3)C2)c1C(F)(F)F (stereo partly shown) [Example 771, (4r)-6-(4-((2-(3,5-dichloro-4-pyridinyl)-2-oxoethyl)(2,2-dimethylpropyl)carbamoyl)-5-(trifluoromethyl)-1H-pyrazol-1-yl)spiro[3.3]heptane-2-carboxylic acid]
4.47 | Cc1cc(F)c(C(=O)CN(CC2(C)CCC2)C(=O)c2cnn([C@H]3CC[C@](C)(C(=O)O)CC3)c2C(F)(F)F)c(Cl)c1 [Example 778, trans-4-(4-((2-(2-chloro-6-fluoro-4-methylphenyl)-2-oxoethyl)((1-methylcyclobutyl)methyl)carbamoyl)-5-(trifluoromethyl)-1H-pyrazol-1-yl)-1-methylcyclohexanecarboxylic acid]
